Converted amounts (≈) assume the structure as drawn.
System: Mycobacterium tuberculosis
Assay: Antimicrobial activity against p-aminosalicylic acid/isonicotinic acid hydrazide/etambutol/rifampicin resistant Mycobacterium tuberculosis Spec. 210 by classical test tube method
Type: functional

First: FC(F)(F)c1cc(-n2cc(CN3CCCN(c4noc5ccccc45)CC3)nn2)ccc1Br
Second: FC(F)(F)c1cc(-n2cc(CN3CCN(c4noc5ccccc45)CC3)nn2)ccc1Br
The MIC of the first is 3.9-fold higher: 24 µM (≈ 12.5 µg/mL) for the first, 6.16 µM (≈ 3.13 µg/mL) for the second.

`O=C(CCCc1c[nH]c2ccccc12)N1CCCN(c2noc3ccccc23)CC1` and `O=C(CCCc1c[nH]c2ccccc12)N1CCN(c2noc3ccccc23)CC1` cannot be ordered by MIC: > 200 µM for the first, > 200 µM for the second.

Compared with `O=C(Cc1c[nH]c2ccccc12)N1CCN(c2noc3ccccc23)CC1`, `O=C(Cc1c[nH]c2ccccc12)N1CCCN(c2noc3ccccc23)CC1` is lower in MIC: > 200 µM for the first, 134 µM (≈ 50 µg/mL) for the second.

Going from `COc1cccc(-n2cc(CN3CCCN(c4noc5ccccc45)CC3)nn2)c1` to `COc1cccc(-n2cc(CN3CCN(c4noc5ccccc45)CC3)nn2)c1`, the MIC falls from > 200 µM to 128 µM (≈ 50 µg/mL).

`O=[N+]([O-])c1ccc(-n2cc(CN3CCN(c4noc5ccccc45)CC3)nn2)cc1` and `O=[N+]([O-])c1ccc(-n2cc(CN3CCCN(c4noc5ccccc45)CC3)nn2)cc1` cannot be ordered by MIC: > 200 µM for the first, > 200 µM for the second.

First: C#CCN1CCCN(c2noc3ccccc23)CC1
Second: C#CCN1CCN(c2noc3ccccc23)CC1
The MIC of the first is lower: 196 µM (≈ 50 µg/mL) for the first, > 200 µM for the second.

`Brc1ccc(-n2cc(CN3CCN(c4noc5ccccc45)CC3)nn2)cc1` and `Brc1ccc(-n2cc(CN3CCCN(c4noc5ccccc45)CC3)nn2)cc1` cannot be ordered by MIC: > 200 µM for the first, > 200 µM for the second.

`FC(F)(F)c1cccc(-n2cc(CN3CCN(c4noc5ccccc45)CC3)nn2)c1` and `FC(F)(F)c1cccc(-n2cc(CN3CCCN(c4noc5ccccc45)CC3)nn2)c1` are within 1.5-fold of each other in MIC: 29.2 µM (≈ 12.5 µg/mL) for the first, 28.3 µM (≈ 12.5 µg/mL) for the second.

`Clc1ccc(-n2cc(CN3CCN(c4noc5cc(Cl)ccc45)CC3)nn2)cc1` and `Clc1ccc2c(N3CCN(Cc4cn(-c5ccc(Br)cc5)nn4)CC3)noc2c1` cannot be ordered by MIC: > 200 µM for the first, > 200 µM for the second.

`O=C(CCCc1c[nH]c2ccccc12)N1CCN(c2noc3cc(Cl)ccc23)CC1` and `O=C(CCc1c[nH]c2ccccc12)N1CCN(c2noc3cc(Cl)ccc23)CC1` cannot be ordered by MIC: > 200 µM for the first, > 200 µM for the second.

`COc1ccc(-n2cc(CN3CCCN(c4noc5ccccc45)CC3)nn2)cc1` and `COc1ccc(-n2cc(CN3CCN(c4noc5ccccc45)CC3)nn2)cc1` cannot be ordered by MIC: > 200 µM for the first, > 200 µM for the second.

`O=C(CCc1c[nH]c2ccccc12)N1CCCN(c2noc3ccccc23)CC1` and `O=C(CCc1c[nH]c2ccccc12)N1CCN(c2noc3ccccc23)CC1` cannot be ordered by MIC: > 200 µM for the first, > 200 µM for the second.

`CCc1ccc(-n2cc(CN3CCCN(c4noc5ccccc45)CC3)nn2)cc1` and `CCc1ccc(-n2cc(CN3CCN(c4noc5ccccc45)CC3)nn2)cc1` cannot be ordered by MIC: > 200 µM for the first, > 200 µM for the second.

`Fc1ccc(-n2cc(CN3CCN(c4noc5ccccc45)CC3)nn2)cc1` and `Fc1ccc(-n2cc(CN3CCCN(c4noc5ccccc45)CC3)nn2)cc1` are within 1.5-fold of each other in MIC: 132 µM (≈ 50 µg/mL) for the first, 127 µM (≈ 50 µg/mL) for the second.

Compared with `O=C(Cc1c[nH]c2ccccc12)N1CCN(c2noc3cc(Cl)ccc23)CC1`, `Clc1cccc(-n2cc(CN3CCN(c4noc5ccccc45)CC3)nn2)c1` is 2-fold lower in MIC: 127 µM (≈ 50.1 µg/mL) for the first, 63.4 µM (≈ 25 µg/mL) for the second.

`Clc1ccc(-n2cc(CN3CCCN(c4noc5ccccc45)CC3)nn2)cc1` and `Clc1ccc(-n2cc(CN3CCN(c4noc5ccccc45)CC3)nn2)cc1` cannot be ordered by MIC: > 200 µM for the first, > 200 µM for the second.

Going from `O=[N+]([O-])c1ccc(-n2cc(CN3CCN(c4noc5cc(Cl)ccc45)CC3)nn2)cc1` to `Fc1ccc(-n2cc(CN3CCN(c4noc5cc(Cl)ccc45)CC3)nn2)cc1`, the MIC falls from > 200 µM to 121 µM (≈ 50.1 µg/mL).

Compared with `Clc1cccc(-n2cc(CN3CCCN(c4noc5ccccc45)CC3)nn2)c1`, `CCc1ccc(-n2cc(CN3CCN(c4noc5cc(Cl)ccc45)CC3)nn2)cc1` is higher in MIC: 122 µM (≈ 50.1 µg/mL) for the first, > 200 µM for the second.

Compared with `COc1ccc(-n2cc(CN3CCN(c4noc5cc(Cl)ccc45)CC3)nn2)cc1`, `C#CCN1CCN(c2noc3cc(Cl)ccc23)CC1` is higher in MIC: 118 µM (≈ 50.1 µg/mL) for the first, > 200 µM for the second.

`NNC(=O)c1ccncc1` [ISONIAZID] gave an MIC of 91.1 µM (≈ 12.5 µg/mL).

Reference: ChEMBL document CHEMBL3792309, “Seeking potent anti-tubercular agents: Design, synthesis, anti-tubercular activity and docking study of various ((triazoles/indole)-piperazin-1-yl/1,4-diazepan-1-yl)benzo[d]isoxazole derivatives” (Bioorg Med Chem Lett, 2016)
